{"source": "patent US20210052597A1", "about": "“HETEROCYCLIC COMPOUNDS USEFUL AS ANTIBACTERIAL AGENTS” (CADILA HEALTHCARE LIMITED, priority 2018, published 2021)", "key": {"[1]": {"system": "Staphylococcus aureus ATCC 29213", "test": "MIC, growth inhibition in Mueller Hinton Broth", "assay_type": "cell-based", "settings": "ATCC29213, S. aureus ATCC 29213, Gram positive, read-out: Minimum Inhibitory Concentration S. aureus ATCC 29213"}, "[2]": {"system": "Escherichia coli ATCC 25922", "test": "MIC, growth inhibition in Mueller Hinton Broth", "assay_type": "cell-based", "settings": "ATCC25922, E. coli ATCC 25922, Gram-negative, read-out: Minimum Inhibitory Concentration E. coli ATCC 25922"}, "[3]": {"system": "Staphylococcus aureus ZYABL 006", "test": "MIC against fluoroquinolone resistant strain", "assay_type": "cell-based", "settings": "ZYABL006, quinolone resistant clinical strain, read-out: Minimum Inhibitory Concentration Staphylococcus aureus ZYABL 006"}, "Topoisomerase II": {"biological_target": "Topoisomerase II (UniProt P20831)", "sequence (P20831 whole entry)": "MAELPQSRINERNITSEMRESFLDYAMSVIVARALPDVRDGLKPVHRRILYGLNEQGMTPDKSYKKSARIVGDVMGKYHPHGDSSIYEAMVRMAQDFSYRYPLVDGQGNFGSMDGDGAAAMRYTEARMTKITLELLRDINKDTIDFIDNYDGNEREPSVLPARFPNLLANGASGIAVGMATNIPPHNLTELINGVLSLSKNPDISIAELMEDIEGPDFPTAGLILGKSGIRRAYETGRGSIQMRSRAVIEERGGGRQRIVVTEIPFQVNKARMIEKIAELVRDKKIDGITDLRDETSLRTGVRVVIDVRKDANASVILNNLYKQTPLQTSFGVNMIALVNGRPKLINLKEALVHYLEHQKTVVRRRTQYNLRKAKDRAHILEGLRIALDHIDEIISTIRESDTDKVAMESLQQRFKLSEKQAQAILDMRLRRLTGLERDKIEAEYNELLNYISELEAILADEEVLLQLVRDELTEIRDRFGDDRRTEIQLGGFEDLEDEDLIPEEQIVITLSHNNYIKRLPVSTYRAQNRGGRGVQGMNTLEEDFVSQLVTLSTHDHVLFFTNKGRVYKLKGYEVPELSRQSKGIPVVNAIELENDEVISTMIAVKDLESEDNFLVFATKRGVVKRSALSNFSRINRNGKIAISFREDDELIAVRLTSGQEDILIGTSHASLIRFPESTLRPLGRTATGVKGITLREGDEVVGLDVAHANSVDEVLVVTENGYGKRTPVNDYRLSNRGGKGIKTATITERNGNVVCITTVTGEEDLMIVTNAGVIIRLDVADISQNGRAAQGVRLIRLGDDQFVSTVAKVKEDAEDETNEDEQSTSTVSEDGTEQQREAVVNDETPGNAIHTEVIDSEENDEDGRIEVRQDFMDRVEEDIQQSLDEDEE", "test": "Topoisomerase II inhibition, gel electrophoresis method", "assay_type": "biochemical", "settings": "37° C. for 30 min, read-out: Invitro IC50 Topoisomerase II", "protocol": "(§1) Evaluation of Topoisomerase II/IV inhibition using gel electrophoresis method: Topoisomerase II/IV (1 unit, Inspiralis) was added to a reaction mixture of DNA (pHOT/kDNA, Topogen) and ATP in appropriate buffers following which different concentrations of the test compounds were added and incubated at 37° C. for 30 min. The reaction was terminated after 30 minutes by the addition of stop buffer. The resulting DNA (relaxed, supercoiled or decatanated) was extracted using chloroform: isoamyl alcohol mixture and was separated using 1% agarose gel electrophoresis. Gel was stained with ethidium bromide for 20 minutes, washed with distilled water and the images were captured for further analysis. The band Intensities from the image were measured using Image J software and the half-maximal […] inhibitory concentration was deduced using Graphpad Prism."}, "Topoisomerase IV": {"biological_target": "T1, Topoisomerase IV (Escherichia coli, UniProt P0AFI2)", "T1 construct": "purchased Inspiralis", "T1 sequence (P0AFI2 whole entry)": "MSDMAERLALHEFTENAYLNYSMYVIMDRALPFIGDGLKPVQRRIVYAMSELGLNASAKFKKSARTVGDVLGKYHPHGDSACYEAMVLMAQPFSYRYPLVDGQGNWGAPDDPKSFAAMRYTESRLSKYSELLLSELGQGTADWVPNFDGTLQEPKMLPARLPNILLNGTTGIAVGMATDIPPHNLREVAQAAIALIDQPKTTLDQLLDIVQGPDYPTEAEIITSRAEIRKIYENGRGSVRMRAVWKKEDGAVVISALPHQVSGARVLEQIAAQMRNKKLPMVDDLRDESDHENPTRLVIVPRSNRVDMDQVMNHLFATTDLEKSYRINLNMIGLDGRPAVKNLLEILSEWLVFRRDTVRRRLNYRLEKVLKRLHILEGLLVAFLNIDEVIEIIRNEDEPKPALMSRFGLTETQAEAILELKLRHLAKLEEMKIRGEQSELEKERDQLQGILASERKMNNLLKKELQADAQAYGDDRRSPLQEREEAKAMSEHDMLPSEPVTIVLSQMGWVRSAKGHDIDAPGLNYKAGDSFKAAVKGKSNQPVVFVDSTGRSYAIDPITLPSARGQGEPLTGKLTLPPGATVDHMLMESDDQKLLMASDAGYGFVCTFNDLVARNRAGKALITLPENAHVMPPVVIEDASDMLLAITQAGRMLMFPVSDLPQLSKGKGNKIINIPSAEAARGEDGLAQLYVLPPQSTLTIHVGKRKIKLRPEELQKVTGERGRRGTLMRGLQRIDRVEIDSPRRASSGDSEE", "T1 sequence (P20083 whole entry, further chain)": "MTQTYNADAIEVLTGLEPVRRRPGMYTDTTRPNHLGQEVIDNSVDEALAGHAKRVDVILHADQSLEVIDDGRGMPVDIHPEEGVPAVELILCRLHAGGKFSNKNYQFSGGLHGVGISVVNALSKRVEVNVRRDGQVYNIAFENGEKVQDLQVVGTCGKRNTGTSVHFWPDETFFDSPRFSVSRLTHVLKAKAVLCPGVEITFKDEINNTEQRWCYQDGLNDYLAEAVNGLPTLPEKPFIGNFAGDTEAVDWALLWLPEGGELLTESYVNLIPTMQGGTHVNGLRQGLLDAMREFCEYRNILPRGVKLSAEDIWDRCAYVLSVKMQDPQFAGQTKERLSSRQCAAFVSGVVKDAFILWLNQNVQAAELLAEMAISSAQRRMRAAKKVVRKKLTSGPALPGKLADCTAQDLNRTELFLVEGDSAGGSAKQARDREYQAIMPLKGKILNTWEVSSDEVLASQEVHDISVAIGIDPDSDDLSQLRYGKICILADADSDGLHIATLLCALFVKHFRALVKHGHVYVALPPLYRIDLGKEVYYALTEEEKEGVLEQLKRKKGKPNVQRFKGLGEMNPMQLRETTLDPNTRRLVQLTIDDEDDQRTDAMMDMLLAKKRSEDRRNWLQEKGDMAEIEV", "test": "Topoisomerase IV inhibition, gel electrophoresis method", "assay_type": "biochemical", "settings": "37° C. for 30 min, read-out: Invitro IC50 Topoisomerase IV", "protocol": "as §1"}, "hERG channel": {"biological_target": "T2, hERG channel (Homo sapiens, UniProt Q12809)", "T2 construct": "expressed in transfected cells; host or cells: CHO cells", "T2 sequence (Q12809 whole entry)": "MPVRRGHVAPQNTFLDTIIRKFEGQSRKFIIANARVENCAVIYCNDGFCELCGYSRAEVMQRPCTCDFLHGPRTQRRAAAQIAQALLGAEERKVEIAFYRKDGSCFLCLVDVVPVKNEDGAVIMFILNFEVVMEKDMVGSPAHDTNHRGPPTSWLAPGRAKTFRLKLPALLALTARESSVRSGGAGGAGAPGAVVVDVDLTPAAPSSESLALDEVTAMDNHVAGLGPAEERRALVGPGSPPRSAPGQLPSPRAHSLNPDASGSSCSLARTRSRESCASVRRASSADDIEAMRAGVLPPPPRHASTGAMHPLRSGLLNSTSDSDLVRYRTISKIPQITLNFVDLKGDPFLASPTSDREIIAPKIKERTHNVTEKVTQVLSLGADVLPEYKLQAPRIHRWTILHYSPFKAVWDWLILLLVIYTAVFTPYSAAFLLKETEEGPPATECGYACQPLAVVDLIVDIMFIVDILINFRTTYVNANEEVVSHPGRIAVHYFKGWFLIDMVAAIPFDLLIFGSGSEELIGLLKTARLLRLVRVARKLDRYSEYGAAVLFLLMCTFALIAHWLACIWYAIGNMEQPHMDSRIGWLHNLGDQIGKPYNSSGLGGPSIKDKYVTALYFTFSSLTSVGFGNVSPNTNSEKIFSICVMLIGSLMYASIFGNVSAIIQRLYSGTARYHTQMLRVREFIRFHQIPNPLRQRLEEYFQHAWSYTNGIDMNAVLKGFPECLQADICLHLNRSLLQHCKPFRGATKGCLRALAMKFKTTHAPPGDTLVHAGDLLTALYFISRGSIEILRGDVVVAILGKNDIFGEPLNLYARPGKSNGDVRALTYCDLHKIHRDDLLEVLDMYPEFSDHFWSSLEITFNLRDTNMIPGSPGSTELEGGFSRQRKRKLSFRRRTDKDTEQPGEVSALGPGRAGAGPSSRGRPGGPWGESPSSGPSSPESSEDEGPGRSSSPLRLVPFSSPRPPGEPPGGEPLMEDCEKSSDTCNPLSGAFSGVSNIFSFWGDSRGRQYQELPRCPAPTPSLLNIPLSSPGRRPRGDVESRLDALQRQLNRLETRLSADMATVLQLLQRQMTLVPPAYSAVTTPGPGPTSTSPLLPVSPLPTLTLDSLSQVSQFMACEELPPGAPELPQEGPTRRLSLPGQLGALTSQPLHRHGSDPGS", "test": "hERG binding study, FluxOR potassium ion channel assay", "assay_type": "cell-based", "settings": "hERG CHO cells, thallium flux, 20 min incubation", "protocol": "FluxOR™ Potassium Ion Channel Assay\nThallium flows down its concentration gradient into the cells, and channel activity is detected with indicator dye that increases in cytosolic fluorescence. Stably expressing hERG CHO cells are checked with test compounds for hERG liability. Compounds incubated for 20 min with cells then stimulation buffer was added and fluorescence measured on TECAN multimode reader. If test compound is inhibiting hERG channel then it will not allow the thallium to flows down in the cells. Vehicle control is considered as total hERG response while treatment with Astemizole as a total hERG channel inhibition and based on that test compounds hERG channel inhibition calculated."}, "[4]": {"system": "Mycobacterium tuberculosis", "settings": "from WO 2008009700 / J. Med. Chem. 2014, 57, 4889-4905; cited from earlier work"}, "S. aureus-ATCC 29213": {"system": "S. aureus-ATCC 29213", "settings": "from WO 2018172925; cited from earlier work"}, "S. pnuemoniae ATCC6301": {"system": "S. pnuemoniae ATCC6301", "settings": "from WO 2018172925; cited from earlier work"}, "[5]": {"system": "Enterococcus Faecalis ATCC29212", "settings": "from WO 2018172925; cited from earlier work"}, "[6]": {"system": "Moraxella catarrhalis ATCC8176", "settings": "from WO 2018172925; cited from earlier work"}, "E. coli ATCC 25922": {"system": "E. coli ATCC 25922", "settings": "from WO 2018172925; cited from earlier work"}, "K pneumonia ATCC 700603": {"system": "K pneumonia ATCC 700603", "settings": "from WO 2018172925; cited from earlier work"}, "[7]": {"system": "Mycobacterium tuberculosis H37Rv", "test": "Mycobacterium tuberculosis H37Rv inhibition assay (MIC)", "assay_type": "cell-based", "protocol": "Mycobacterium tuberculosis H37Rv Inhibition Assay\nThe measurement of the minimum inhibitory concentration (MIC) for each tested compound was performed in 96 wells flat bottom, polystyrene microtiter plates following standard protocol."}, "[8]": {"system": "Staphylococcus aureus (BAA38)", "test": "MIC testing against broad panel of strains", "settings": "BAA38, read-out: MIC Staphylococcus aureus (BAA38)", "procedure": "(§2) The ability of the invention compounds disclosed herein to achieve an antibacterial effect may be evaluated with regard to their ability to inhibit the growth of bacterial species like Escherichia coli ATCC 25922, Staphylococcus aureus ATCC 29213 using an assay based on the following Minimum Inhibitory Concentration (MIC) protocol:\n(§3) The test bacteria are grown in Muellor Hinton Broth (M1657)—MHB, 25 grams of the powder is dissolved in 1000 ml distilled water and sterilized by autoclaving at 15 lbs pressure (121° C.) for 20 minutes. The medium sterility is checked by incubating at 37° C. for a period of 48 h.\n(§4) Bacterial cultures that are stored as glycerol stocks at −80° C. are sub cultured on LB agar plates to obtain isolated colonies. A single colony of each strain is cultured in LB broth. The cultures are incubated at 37° C., 200 rpm till they reach an optical density (OD at 600 nm) of 0.8 to 1. This log phase culture is diluted in LB broth to a cell number of 5-8*10^5 CFU/mL to be used as inoculum for MIC experiments.\n(§5) Test compounds were diluted in their respective solvents and added to a final concentration ranging from 16 to 0.12 μg/ml in 150 μl MHB in 96 well plates.\n(§6) Controls to monitor the effects of DMSO and media sterility are included. […] The following morning, the plates are read using a Spectrophotometer at 600 nm wavelength."}, "[9]": {"system": "Staphylococcus pneumonia (ATCC700906)", "test": "MIC testing against broad panel of strains", "settings": "ATCC700906, read-out: MIC Staphylococcus pneumonia (ATCC700906)", "procedure": "as §2, §3, §4, §5, §6"}, "[10]": {"system": "Enterococcus faecalis (ATCC700802)", "test": "MIC testing against broad panel of strains", "settings": "ATCC700802, read-out: MIC Enterococcus faecalis (ATCC700802)", "procedure": "as §2, §3, §4, §5, §6"}, "[11]": {"system": "Escherichia coli (ATCC10536)", "test": "MIC testing against broad panel of strains", "settings": "ATCC10536, read-out: MIC Escherichia coli (ATCC10536)", "procedure": "as §2, §3, §4, §5, §6"}, "[12]": {"system": "Acinetobacter baumannii (BAA1605)", "test": "MIC testing against broad panel of strains", "settings": "BAA1605, read-out: MIC Acinetobacter baumannii (BAA1605)", "procedure": "as §2, §3, §4, §5, §6"}, "[13]": {"system": "Klebsiella pneumonia (ATCC35657)", "test": "MIC testing against broad panel of strains", "settings": "Klebsiella pneumoniae, ATCC35657, read-out: MIC Klebsiella pneumonia (ATCC35657)", "procedure": "as §2, §3, §4, §5, §6"}}}
{"smiles": "O=C1COc2ccc(CNC3CCN(CCn4c(=O)ccc5ccc(F)cc54)CC3)cc2N1", "note": "[Example 4, 6-(((1-(2-(7-fluoro-2-oxoquinolin-1(2H)-yl)ethyl)piperidin-4-yl)amino)methyl)-2H-benzo[b][1,4]oxazin-3(4H)-one]", "values": [{"measurement": "MIC", "setting": "[1]", "value": "< 0.125", "unit": "µg/mL"}, {"measurement": "MIC", "setting": "[2]", "value": "< 0.125", "unit": "µg/mL"}, {"measurement": "MIC", "setting": "[3]", "value": "< 0.125", "unit": "µg/mL"}, {"measurement": "IC50", "setting": "Topoisomerase II", "value": 6.9, "unit": "nM"}, {"measurement": "IC50", "setting": "Topoisomerase IV", "value": 400, "unit": "nM"}, {"measurement": "IC50", "setting": "hERG channel", "value": "> 10000", "unit": "nM"}]}
{"smiles": "N#Cc1ccc2ccc(=O)n(CCN3CCC(NCc4cc5c(cn4)OCCO5)CC3)c2c1", "note": "[Example 54]", "values": [{"measurement": "MIC against Mycobacterium tuberculosis", "setting": "[4]", "value": 1, "unit": "µM"}]}
{"smiles": "N#Cc1ccc2ccc(=O)n(CCN3CCC(NCc4ccc5c(c4)OCCO5)CC3)c2c1", "note": "[Example 1, 1-(2-(4-(((2,3-dihydrobenzo[b][1,4]dioxin-6-yl)methyl)amino)piperidin-1-yl)ethyl)-2-oxo-1,2-dihydroquinoline-7-carbonitrile]", "values": [{"measurement": "MIC", "setting": "[1]", "value": 0.03, "unit": "µg/mL"}, {"measurement": "MIC", "setting": "[2]", "value": 0.5, "unit": "µg/mL"}, {"measurement": "MIC", "setting": "[3]", "value": "< 0.125", "unit": "µg/mL"}, {"measurement": "IC50", "setting": "Topoisomerase II", "value": 44, "unit": "nM"}, {"measurement": "IC50", "setting": "Topoisomerase IV", "value": 900, "unit": "nM"}, {"measurement": "IC50", "setting": "hERG channel", "value": "> 30000", "unit": "nM"}]}
{"smiles": "Cc1ccc(CNC2CCN(CCn3c(=O)ccc4ccc(C#N)cc43)CC2)cc1[N+](=O)[O-]", "note": "[VT-03-00065]", "values": [{"measurement": "MIC S. aureus-ATCC 29213", "setting": "S. aureus-ATCC 29213", "value": 0.25, "unit": "µg/mL"}, {"measurement": "MIC S. pnuemoniae ATCC6301", "setting": "S. pnuemoniae ATCC6301", "value": 4, "unit": "µg/mL"}, {"measurement": "MIC Enterococcus Faecalis ATCC29212", "setting": "[5]", "value": "> 32", "unit": "µg/mL"}, {"measurement": "MIC Moraxella catarrhalis ATCC8176", "setting": "[6]", "value": "> 32", "unit": "µg/mL"}, {"measurement": "MIC E. coli ATCC 25922", "setting": "E. coli ATCC 25922", "value": "> 32", "unit": "µg/mL"}, {"measurement": "MIC K pneumonia ATCC 700603", "setting": "K pneumonia ATCC 700603", "value": "> 32", "unit": "µg/mL"}]}
{"smiles": "O=C1CSc2ccc(CNC3CCN(CCn4c(=O)ccc5ccc(F)cc54)CC3)cc2N1", "note": "[Example 5, 6-(((1-(2-(7-fluoro-2-oxoquinolin-1(2H)-yl)ethyl)piperidin-4-yl)amino)methyl)-2H-benzo[b][1,4]thiazin-3(4H)-one]", "values": [{"measurement": "MIC", "setting": "[1]", "value": 0.25, "unit": "µg/mL"}, {"measurement": "MIC", "setting": "[2]", "value": 0.25, "unit": "µg/mL"}, {"measurement": "MIC", "setting": "[3]", "value": "< 0.125", "unit": "µg/mL"}, {"measurement": "IC50", "setting": "Topoisomerase II", "value": 38.4, "unit": "nM"}, {"measurement": "IC50", "setting": "Topoisomerase IV", "value": 800, "unit": "nM"}, {"measurement": "IC50", "setting": "hERG channel", "value": "> 10000", "unit": "nM"}]}
{"smiles": "N#Cc1ccc2ccc(=O)n(CCN3CCC(NCc4ccc5c(c4)NC(=O)CS5)CC3)c2c1", "note": "[Example 3, 2-oxo-1-(2-(4-(((3-oxo-3,4-dihydro-2H-benzo[b][1,4]thiazin-6-yl)methyl)amino)piperidin-1-yl)ethyl)-1,2-dihydroquinoline-7-carbonitrile]", "values": [{"measurement": "MIC", "setting": "[1]", "value": 0.06, "unit": "µg/mL"}, {"measurement": "MIC", "setting": "[2]", "value": 0.125, "unit": "µg/mL"}, {"measurement": "MIC", "setting": "[3]", "value": "< 0.125", "unit": "µg/mL"}, {"measurement": "IC50", "setting": "Topoisomerase II", "value": 3.2, "unit": "nM"}, {"measurement": "IC50", "setting": "Topoisomerase IV", "value": 300, "unit": "nM"}, {"measurement": "IC50", "setting": "hERG channel", "value": "> 10000", "unit": "nM"}, {"measurement": "inhibition of Mycobacterium tuberculosis (in words)", "setting": "[7]", "value": "potent inhibition"}, {"measurement": "MIC", "setting": "[7]; Mycobacterium tuberculosis, H37RV, 96 well microtiter plates", "value": 0.25, "unit": "µM"}, {"measurement": "MIC", "setting": "[8]", "value": 0.125, "unit": "µg/mL"}, {"measurement": "MIC", "setting": "[9]", "value": 0.125, "unit": "µg/mL"}, {"measurement": "MIC", "setting": "[10]", "value": 0.5, "unit": "µg/mL"}, {"measurement": "MIC", "setting": "[11]", "value": 0.125, "unit": "µg/mL"}, {"measurement": "MIC", "setting": "[12]", "value": 0.25, "unit": "µg/mL"}, {"measurement": "MIC", "setting": "[13]", "value": 0.25, "unit": "µg/mL"}]}
{"smiles": "N#Cc1ccc2ccc(=O)n(CCN3CCC(NCc4ccc5c(c4)NC(=O)CO5)CC3)c2c1", "note": "[Example 2, 2-oxo-1-(2-(4-(((3-oxo-3,4-dihydro-2H-benzo[b][1,4]oxazin-6-yl)methyl)amino)piperidin-1-yl)ethyl)-1,2-dihydroquinoline-7-carbonitrile]", "values": [{"measurement": "MIC", "setting": "[1]", "value": 0.25, "unit": "µg/mL"}, {"measurement": "MIC", "setting": "[2]", "value": 0.25, "unit": "µg/mL"}, {"measurement": "MIC", "setting": "[3]", "value": "< 0.125", "unit": "µg/mL"}, {"measurement": "IC50", "setting": "Topoisomerase II", "value": 3.4, "unit": "nM"}, {"measurement": "IC50", "setting": "Topoisomerase IV", "value": 1300, "unit": "nM"}, {"measurement": "IC50", "setting": "hERG channel", "value": "> 10000", "unit": "nM"}]}
{"smiles": "N#Cc1ccc2ncc(=O)n(CCN3CCC(NCc4ccc5c(c4)NC(=O)CS5)CC3)c2c1", "note": "[Example 6, 3-oxo-4-(2-(4-(((3-oxo-3,4-dihydro-2H-benzo[b][1,4]thiazin-6-yl)methyl)amino)piperidin-1-yl)ethyl)-3,4-dihydroquinoxaline-6-carbonitrile]", "values": [{"measurement": "MIC", "setting": "[1]", "value": "< 0.125", "unit": "µg/mL"}, {"measurement": "MIC", "setting": "[2]", "value": "< 0.125", "unit": "µg/mL"}]}
